Results: ChEMBL document CHEMBL1122769, “Mesoionic xanthine analogues: antagonists of adenosine receptors” (J Med Chem, 1984)

Columns and labels:
Adenosine receptor A1 = molecular target: T1, Adenosine receptor A1 (Rattus norvegicus, UniProt P25099); experiment: Antagonism of adenosine A1 receptor assessed from the ability to inhibit binding of [3H]cyclohexyladenosine to rat cerebral cortical membranes; format: cell membranes, Membrane
T1 sequence (P25099 whole entry): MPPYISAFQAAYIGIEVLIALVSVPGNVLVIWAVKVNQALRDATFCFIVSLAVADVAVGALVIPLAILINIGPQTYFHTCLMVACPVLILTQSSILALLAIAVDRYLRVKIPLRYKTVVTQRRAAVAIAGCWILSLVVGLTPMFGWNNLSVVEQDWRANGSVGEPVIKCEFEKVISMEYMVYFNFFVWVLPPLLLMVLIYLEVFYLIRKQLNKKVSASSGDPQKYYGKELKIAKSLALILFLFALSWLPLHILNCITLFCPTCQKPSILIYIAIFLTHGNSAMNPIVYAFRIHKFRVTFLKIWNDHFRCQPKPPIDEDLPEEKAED

Cavia porcellus = organism: Cavia porcellus; experiment: Ability to inhibit 2-chloroadenosine (15 uM)-elicited accumulations of cyclic AMP in guinea pig cerebral cortical slices

IC50 (Adenosine receptor A1) [µM] | IC50 (Cavia porcellus) [µM] | Structure (SMILES)
7 | 35 | O=c1c2[nH]cnc2n(Cc2ccccc2)c(=O)n1Cc1ccccc1
58 | > 200 | CCN1C(=O)C(Cc2ccccc2)C(=O)N2N=CSC12 (configuration not stated)
41 | 15 | CCC1C(=O)N(CC(C)C)C2Sc3ccccc3N2C1=O (configuration not stated)
95 | 250 | CCC1C(=O)N2C=CSC2N(Cc2cc(OC)cc(OC)c2)C1=O (configuration not stated)
110 | > 250 | CCN1C(=O)CC(=O)N2N=CSC12 (configuration not stated)
60 | > 250 | CCN1C(=O)C(C)C(=O)N2N=CSC12 (configuration not stated)
30 | 20 | CCCC1C(=O)N(CC(C)C)C2Sc3ccccc3N2C1=O (configuration not stated)
80 | 250 | CCC1C(=O)N(CC)C2SC(c3ccccc3)=NN2C1=O (configuration not stated)
> 250 | > 250 | CCCC1C(=O)N(C)C2N(C)C=NN2C1=O (configuration not stated)
 | 1.65 | Cn1c(=O)c2nc(-c3ccccc3)[nH]c2n(C)c1=O [8-PHENYL THEOPHYLLINE]

Continued, compound first:

Structure (SMILES) | IC50 (Adenosine receptor A1) [µM] | IC50 (Cavia porcellus) [µM]
CCCn1c(=O)c2nc[nH]c2n(CCC)c1=O | 1.5 | 8.1
CCCCCN1C(=O)C(C)C(=O)N2N=CSC12 (configuration not stated) | 120 | > 250
CCC1C(=O)N2C=CSC2N(CC)C1=O (configuration not stated) | 120 | 150
O=C1C(Cc2ccccc2)C(=O)N(CC2CC2)C2SC=CN12 (configuration not stated) | 160 | 200
CCC1C(=O)N2C=Cc3ccccc3C2N(CC)C1=O (configuration not stated) | 27 | 30
CCC1C(=O)SC2N(C)C=CN2C1=O (configuration not stated) | 290 | > 250
CCC1C(=O)N2C=CSC2N(Cc2ccccc2)C1=O (configuration not stated) | 160 | 150
CCC1C(=O)N(CC)C2SC(C)=NN2C1=O (configuration not stated) | 500 | > 250
CCCC1C(=O)N2C=CSC2N(CCC)C1=O (configuration not stated) | 54 | 250
CCN1C(=O)C(Cc2ccc(Cl)cc2)C(=O)N2N=CSC12 (configuration not stated) | 45 | > 250
CCC1C(=O)N(CC)C2SC=NN2C1=O (configuration not stated) | 72 | > 250
CCC1C(=O)N2C=CSC2N(CC2CC2)C1=O (configuration not stated) | 100 | 120
CCn1c(=O)c2nc[nH]c2n(CC)c1=O | 6.4 | 12
Cn1c(=O)c2c(ncn2C)n(C)c1=O [CAFFEINE] |  | 150
Cn1c(=O)c2nc[nH]c2n(C)c1=O [THEOPHYLLINE] |  | 42
